# Measurements from patent US20050171014A1, “Conjugates of ligand linker and cytotoxic agent and related composition and methods of use” (Government of the United States of America, represented by …, priority 2003, published 2005).
# Starred links: 1 amine or outer side, 2 acyl side, 3 side chain; linkers in the order of their positions; H or OH if unused. Non-standard residues stand in square brackets, D forms with d. Residues, ends and D or L forms follow the SMILES beside them. NMePhe(β,β-Me2) = CN[C@H](C(=O)O)C(C)(C)c1ccccc1; X1 = C/C(=C\[C@H](C(C)C)N(C)[*:1])C(=O)[*:2]; Tle = CC(C)(C)[C@H](N)C(=O)O; Nle = CCCC[C@H](N)C(=O)O
# What was measured:
# [1] = system: gastrin receptor-expressing 3T3 cells; type: cell-based; conditions: methods of Example 7
# Experimental: Isogenic cell lines, one transfected with the target cell surface receptor and the parent cell line without detectable receptor expression, were used for determination of selective activity of toxin conjugates. Transfection of NIH/3T3, CHO and HeLa cells (American Type Culture Collection, Manassas, Va.) with gastrin receptor cDNA (prepared as described in Tarasova et al., J. Biol. Chem. 272: 14817-14824 (1997)) was performed as described (Tarasova et al., J Biol. Chem. 272(23): 14817-14824 (1997)). For the tests, the cells were seeded in 96-well plates at a density of 500-1000 cells per well and allowed to attach for 24 hours. The compounds were added to the cells at concentrations ranging from 10 pM to 10 μM and the cells were grown in a CO2 incubator in the presence of compounds for 4-5 days. The cell number was estimated with either the methylthiazolyldiphenyl-tetrazolium bromide (MTT) assay (Alley et al., Cancer Res. 48(3): 589-601 (1988)) or sulforhodamine assay as described in Skehan et al., J. Natl. Cancer Inst. 82(13): 1107-1112 (1990)).
# [2] = system: cathepsin B and cathespin D
structure (smiles),measurement,setting,value
"CCCC[C@H](NC(=O)[C@H](Cc1c[nH]c2ccccc12)NC(=O)CNC(=O)[C@H](Cc1ccc(O)cc1)NC(=O)[C@H](C)NC(=O)[C@H](CCC(=O)O)NC(=O)[C@H](CCC(=O)O)NC(=O)[C@H](CCC(=O)O)NC(=O)[C@H](C)NC(=O)[C@H](CC(C)C)NC(=O)[C@H](C)NC(=O)[C@H](CC(C)C)NC(=O)[C@@H](NC(=O)/C(C)=C/[C@H](C(C)C)N(C)C(=O)[C@@H](NC(=O)[C@@H](NC)C(C)(C)c1ccccc1)C(C)(C)C)C(C)C)C(=O)N[C@@H](CC(=O)O)C(=O)N[C@@H](Cc1ccccc1)C(N)=O (H-[NMePhe(β,β-Me2)][Tle][X1]VLALAEEEAYGW[Nle]DF-NH2)",IC50,[1],1 µM
same,products of hydrolysis by lysosomal proteases,[2],generated mostly pentapeptide or SPA110 extended by Val-Leu on the C-terminus
